Measurements reported in patent publication US6160087A, “Peptides having an amino acid sequence from the fimbrial protein of porphyromonas gingivalis and their uses” (priority 1993, dated 2000).

Experiments:
[1] = tested on: anti-Porphyomonas gingivalis fimbria antibodies contained in sera of patients with periodontal disease; assay: Assay of the specific antibody in serum using plates coated with peptide-modified BSA (ELISA); assay type: binding, human; details: average absorbance (405 nm) of 3 specimens, serum diluted 100 times
Protocol: One mg of each peptide synthesized in Example 2 was dissolved in 1 ml of 0.1 M phosphate buffered saline (PBS, pH 6.0), 5 mg of sulfated SMCC (made by Pierce Co.) was added, and the mixture was incubated at 30° C. for 30 minutes to conduct maleimidization, and then subjected to Sephadex G-10 column chromatography, and the first eluate fraction was collected. 7 mg of bovine serum albumin (BSA: made by Wako Pure Chemical Industries, Ltd.) was dissolved in 1 ml of 0.1 M phosphate buffer (pH 6.0), 10 mM EDTA, the solution was mixed with the above maleimidized peptide, and the mixture was subjected to reaction at 30° C. for 1 hour. The resultant peptide-modified BSA was subjected to Sephadex G-50 column chromatography, and the first eluate fraction was collected as a plate-preparing antigen solution.
Then, six kind of peptides were synthesized after the process of Example 2, and a plate-preparing antigen solution was similarly prepared as a control.
Each of the resultant antigen solutions was diluted with 0.1 M carbonate buffer (pH 9.6), 150 mM NaCl to give 100 ml of a solution. 10 μl/well of the solution was put in a polystyrene-made microtiter plate (Immunoplate II; maxisorp type; made by Nunc Co.) and left alone at 4° C. overnight, and washing was conducted three times each with 200 μl/well of PBS, using a microtiter automatic washer (hereafter abbreviated as washer; made by Bio-Rad Laboratories). 250 μl/well of PBS containing 0.1% gelatin (made by Nitta Gelatin Co., Ltd.) was added and the mixture was allowed to stand at 4° C. overnight to block the plate. The blocking solution was removed by absorption, and the plate was dried by a vacuum dryer, put in an aluminum bag, and after sealing the bag, kept at 4° C. for the following assay.
Sera of patients of periodontal disease (n=3) and normal subjects (n=3) were used as samples, and each serum was diluted 100 times with PBS containing 10% bovine serum. 100 μl portions of these dilutions were added to the plates coated with various antigens, respectively, and incubation was conducted at 37° C. for 1 hour. Each plate was washed three times with 200 μl of PBST using the washer, 100 μl of a commercially available […] (diluted 10^3 times)/0.1% Casein/PBST was added as a secondary antibody, and incubation was conducted again at 37° C. for 1 hour. The plate was washed in the same manner as above, 100 μl of an o-phenylenediamine solution was added, incubation was conducted at 37° C. for 30 minutes, 100 μl of 0.1 N sulfuric acid was added to stop the reaction, and then, absorbance (405 nm) was measured by a microplate reader (made by Bio-Rad Laboratories) using the reaction well of no addition of the specimen as a control. The measures values are average absorbances of 3 specimens each of the patient group of periodontal disease and the normal subject group.

Porphyomonas gingivalis = assay type: in vivo, guinea pig; details: for inhibitory effect against infection with Porphyomonas gingivalis: guinea pig, in words; for Degree of redness Longest length × shortest length / Inhibition rate: with FCA; for Degree of redness Longest length × shortest length: 500 μg/animal, inoculation on the 28th day, 24 hours later; for Inhibition rate: relative to the FIA inoculation group
Protocol: Each peptide synthesized in Example 2 was administered together with FIA (Freund's incomplete adjuvant) or FCA (Freund's complete adjuvant), as a water-in-oil type emulsifier, into the sole of the right hind leg of a guinea pig in an amount of 500 μg/animal/time. Thereafter, on the 28th day, 200 μl of a suspension of 10^11 cells/ml of the bacterium was intracutaneously inoculated into the right flank of the same guinea pig after the hair at the region was shaved. 24 hours later, the longest length and shortest length of the resultant red coloring were measured, and the product of them was calculated. From the product was calculated the inhibition rate.

[2] = tested on: fimbrial protein of Porphyomonas gingivalis; assay: Immunization of mice with the peptides: antibody titer in serum or saliva by ELISA; assay type: in vivo; details: A405 value by the ELISA method, with FCA, 4 weeks later
Protocol: (§1) Each peptide synthesized in Example 2 was dissolved in PBS so as to make the concentration 200 μg/ml, the solution was mixed with the same volume of FCA, and the mixture after emulsification was subcutaneously injected into mice at the back (3 animals per group). 4 weeks later, the antibody titer in the serum or saliva against the peptide was assayed by an ELISA method.
The fimbrial protein of Porphyomonas gingivalis was adsorbed on each well of a 96-well microtiter plate for ELISA, and a dilution of the serum with PBS (1/10^5), a dilution of the saliva with PBS (1/500), or a solution obtained by adding each peptide or the fimbrial protein of Porphyomonas gingivalis is to the dilution of the serum or saliva to cause absorption was put in the well. Reaction was conducted at 37° C. for 1 hour, and then assay was conducted by a usual ELISA method.

[3] = Immunization of mice with the peptides: body weight; assay type: in vivo; details: mice immunized with FCA emulsion, 3 animals per group
Protocol: as §1

[4] = tested on: Porphyomonas gingivalis strain 381; assay: Inhibitory test of Porphyomonas gingivalis infection in Golden hamster with vaccine: resorption of alveolar bone; assay type: in vivo, Golden hamsters; details: for degree of resorption of the alveolar bone: in words; for Absorbance of alveolar bone (average): vaccine of Example 3, induction with Porphyomonas gingivalis strain 381, 80 days
From the text: The effects of vaccine on Peptide 1 and Peptide 7 selected from the results of Test example 1, Test example 2, Test example 3, Test example 4 and Test example 5 were examined according to the following method using degree of resorption of alveolar bone and antibody titer as measures, using the vaccine described in Example 3.
(§2) 3-week-old Golden hamsters (one group consisting of 6 animals, 5 groups in total, 1 Porphyomonas gingivalis strain 381 fimbria immunity induction group, 2 Peptide 1 immunity induction group, 3 Peptide 7 immunity induction group, 4 Nonimmunity induction group, 5 Nonimmunity noninduction group) were used.
(§3) Each of the vaccines of the invention was subcutaneously administered at the oral cavity in amounts of 0.2 ml portions on the third week and the fourth week after the birth, and 0.4 ml on the fifth week.
(§4) Induction of periodontal disease was conducted by culturing Porphyomonas gingivalis strain 381 in GAM broth at 37° C. for 20 hours, collecting the cells by centrifugation, suspending the cells in phisiological saline so that the cell concentration could be 10^9 cells/ml, administering 0.2 ml portions of the suspension into the oral cavity of the Golden hamsters for 7 days starting from the sixth week after the birth, and thereafter, administering the suspension once a week.
After the start of the cell administration, the animals were allowed to freely ingest Diet 2000 (made by Funabashi Nojo) as a dental caries-inducing feed and water.
(§5) After the Golden hamsters were fed for 80 days, 1 ml/kg portions of 0.5% pilocarpine hydrochloride were intraperitoneally administered, and saliva was taken from them. Thereafter, blood was taken from the abdominal aorta of each animal, and serum was obtained therefrom. Further, a bone preparation from each hamster was produced by amputating the head, heat treating the head using an autoclave, removing the muscle part, and washing with water and drying the remaining matter.
The bone preparation was assayed for degree of resorption of the alveolar bone of a molar according to the method^f) of Tsukiyama et al. (Koku Eisei Kaishi (Jornal of Hygiene of Oral Cavity) 28, No. 3, 149, 1978).
f) The bone preparation was stained with 20% silver nitrate solution for 5 minutes, and after water washing and drying, the distance from the enamel-cement junction to the alveolar bone edge was measured by a stereoscopic microscope (magnification 15-fold).

the peptide = assay: Inhibitory test of Porphyomonas gingivalis infection in Golden hamster with vaccine: antibody titer in serum and saliva; assay type: in vivo, Golden hamsters; details: for Antibody titer Saliva (1/500) / Antibody titer Serum (1/10^5): A405 value by the ELISA method; for antibody titer in the sera and saliva: in words
Protocol: as §2, §3, §4, §5
The saliva and serum were assayed for antibody titer against the peptide.

[5] = Inhibitory test of Porphyomonas gingivalis infection in Golden hamster with vaccine: body weight; assay type: in vivo, Golden hamsters; details: vaccine of Example 3, subcutaneous at the oral cavity, fed for 80 days
Protocol: as §2, §3, §5

| Substance | Antibody titer, Normal subject group [1] | Antibody titer, Patient group with peridontal disease [1] | inhibitory effect against infection with Porphyomonas gingivalis (Porphyomonas gingivalis) | Degree of redness Longest length × shortest length (Porphyomonas gingivalis) [mm^2] | Inhibition rate (Porphyomonas gingivalis) [%] | Antibody titer Saliva (1/500) After absorption [2] | Antibody titer Saliva (1/500) Before absorption [2] | Antibody titer Serum (1/10^5) After absorption [2] | Antibody titer Serum (1/10^5) Before absorption [2] | Body weight (Average g) [3] [g] | degree of resorption of the alveolar bone [4] | Absorbance of alveolar bone (average) [4] | Antibody titer Saliva (1/500) (the peptide) | Antibody titer Serum (1/10^5) (the peptide) | antibody titer in the sera and saliva (the peptide) | Body weight (at the time of production of bone preparation) (average g) [5] [g] |
| --- | --- | --- | --- | --- | --- | --- | --- | --- | --- | --- | --- | --- | --- | --- | --- | --- |
| Peptide 1: synthetic peptide, epitope of the 41 kD fimbrial subunit protein of Porphyomonas gingivalis; sequence in Table 1, not shown (ENATKVEDIK) | 0.145 | 1.016 | strong inhibitory effect | 660 | 66.1 | 0.11 | 0.61 | 0.19 | 0.62 | 25 | inhibition of absoption of the alveolar bone | 48 | 0.62 | 0.65 | increse of antibody titer | 124 |
| Peptide 7: synthetic peptide, epitope of the 41 kD fimbrial subunit protein of Porphyomonas gingivalis; sequence in Table 1, not shown (GFYVLENDYS) | 0.226 | 1.224 | strong inhibitory effect | 240 | 87.7 | 0.15 | 0.69 | 0.14 | 0.67 | 23 | inhibition of absoption of the alveolar bone | 41 | 0.79 | 0.71 | increse of antibody titer | 123 |
